Experimental data as given in US10538555B2, “Macrocyclic inhibitors of the PD-1/PD-L1 and CD80(B7-1)/PD-L1 protein/protein interactions” (BRISTOL-MYERS SQUIBB COMPANY, priority 2014, dated 2020).
*1 amine or outer side, *2 acyl side, *3 side chain or, on linkers, in order; H or OH if unused. Where a SMILES comes first, the peptide text is derived from it. Bridges are numbered along the chain shown (N, C = ends). [ ]: non-standard residue; d: D form. Trp(1-CH2COOH) = N[C@@H](Cc1cn(CC(=O)O)c2ccccc12)C(=O)O; X8 = O=C([C@H](CC1CNc2ccccc21)N[*:1])[*:2]; Bta = N[C@@H](Cc1csc2ccccc12)C(=O)O; Hyp = O=C(O)[C@@H]1C[C@@H](O)CN1; NMeNle = CCCC[C@H](NC)C(=O)O; NMeA = CN[C@@H](C)C(=O)O; Dab = NCC[C@H](N)C(=O)O; Dap = NC[C@H](N)C(=O)O

Molecular target: T1, Human PD-L1/PD-1 (Homo sapiens, UniProt Q9NZQ7)
T1 construct: TVMV protease cleavage site (C); made in house; host or cells: HEK293T cells
T1 sequence (Q9NZQ7 with tags, fused parts or gaps): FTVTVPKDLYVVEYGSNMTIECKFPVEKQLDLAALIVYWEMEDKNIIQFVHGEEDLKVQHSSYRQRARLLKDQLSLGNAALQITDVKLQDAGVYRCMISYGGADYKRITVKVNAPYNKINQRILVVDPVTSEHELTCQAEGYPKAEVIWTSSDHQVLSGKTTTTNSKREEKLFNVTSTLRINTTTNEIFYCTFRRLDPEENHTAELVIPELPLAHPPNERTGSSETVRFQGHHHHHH
Assay: HTRF Human PD-L1/PD-1 binding assay (PD-1-Ig/PD-L1-His)
Settings: PD-L1-His 10 nM, PD-1-Ig 20 nM; class symbol; read-out: HTRF Human PD-L1/PD-1 Binding Assay IC50 Range
How it was run: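 Soluble HEK293T-expressed proteins: hPD-L1-His 10 nM, hPD-1-Ig 20 nM final. Cpd + PD-L1 15 min, + PD-1 15 min, + Eu anti-Ig 1 nM/APC anti-His 20 nM 30 min. Buffer dPBS, 0.1% BSA, 0.05% Tween-20. TR-FRET 665/620.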

Work on `CCCC[C@H]1C(=O)N(C)[C@@H](CCCC)C(=O)N[C@@H](CC(C)C)C(=O)N[C@H](C(=O)NCC(N)=O)CSCC(=O)N[C@@H](Cc2ccc(O)cc2)C(=O)N(C)[C@@H](C)C(=O)N[C@@H](CC(N)=O)C(=O)N2CCC[C@H]2C(=O)N[C@@H](Cc2c[nH]cn2)C(=O)N[C@@H](CCC(=O)O)C(=O)N2C[C@H](O)C[C@H]2C(=O)N[C@@H](Cc2c[nH]c3ccccc23)C(=O)N[C@H](C)C(=O)N[C@@H](Cc2csc3ccccc23)C(=O)N1C` [Example 5169] ({CH2CO}-Y[NMeA]NPHE[Hyp]W[dA][Bta][NMeNle][NMeNle]LCG-NH2; thioether N-14) yielded an IC50 of 1 to 9.9 nM.

In the case of `CCCC[C@H]1C(=O)N(C)[C@@H](CCCC)C(=O)N[C@@H](CCC(=O)O)C(=O)N[C@H](C(=O)NCC(N)=O)CSCC(=O)N[C@@H](Cc2ccc(O)cc2)C(=O)N(C)[C@@H](C)C(=O)N[C@@H](CC(=O)O)C(=O)N2CCC[C@H]2C(=O)N[C@@H](CN)C(=O)N[C@@H](CCC(=O)O)C(=O)N2C[C@H](O)C[C@H]2C(=O)N[C@@H](Cc2c[nH]c3ccccc23)C(=O)N[C@@H](CO)C(=O)N[C@@H](Cc2c[nH]c3ccccc23)C(=O)N1C` [Example 5170] ({CH2CO}-Y[NMeA]DP[Dap]E[Hyp]WSW[NMeNle][NMeNle]ECG-NH2; thioether N-14), the IC50 is reported as 1 to 9.9 nM.

`CCCC[C@H]1C(=O)N(C)[C@@H](CCCC)C(=O)N[C@@H](CC(C)C)C(=O)N[C@H](C(=O)NCC(N)=O)CSCC(=O)N[C@@H](Cc2ccc(O)cc2)C(=O)N(C)[C@@H](C)C(=O)N[C@@H](CC(=O)O)C(=O)N2CCC[C@H]2C(=O)N[C@@H](CN)C(=O)N[C@@H](CC(C)C)C(=O)N2C[C@H](O)C[C@H]2C(=O)N[C@@H](Cc2c[nH]c3ccccc23)C(=O)N[C@@H](CCN)C(=O)N[C@@H](Cc2cn(CC(=O)O)c3ccccc23)C(=O)N1C` [Example 5171] ({CH2CO}-Y[NMeA]DP[Dap]L[Hyp]W[Dab][Trp(1-CH2COOH)][NMeNle][NMeNle]LCG-NH2; thioether N-14) showed an IC50 of 1 to 9.9 nM.

Work on `CCCC[C@H]1C(=O)N(C)[C@@H](CCCC)C(=O)NCC(=O)N[C@H](C(=O)NCC(N)=O)CSCC(=O)N[C@@H](Cc2ccc(O)cc2)C(=O)N(C)[C@@H](C)C(=O)N[C@@H](CC(N)=O)C(=O)N2CCC[C@H]2C(=O)NCC(=O)N[C@@H](CCC(N)=O)C(=O)N2C[C@H](O)C[C@H]2C(=O)N[C@@H](Cc2c[nH]c3ccccc23)C(=O)N[C@@H](CO)C(=O)N[C@@H](Cc2c[nH]c3ccccc23)C(=O)N1C` [Example 5175] ({CH2CO}-Y[NMeA]NPGQ[Hyp]WSW[NMeNle][NMeNle]GCG-NH2; thioether N-14) yielded an IC50 of 1 to 9.9 nM.

Work on `CCCC[C@H]1C(=O)N(C)[C@@H](CCCC)C(=O)N[C@@H](CN)C(=O)N[C@H](C(=O)NCC(N)=O)CSCC(=O)N[C@@H](Cc2ccc(O)cc2)C(=O)N(C)[C@@H](C)C(=O)N[C@@H](CC(=O)O)C(=O)N2CCC[C@H]2C(=O)N[C@@H](CN)C(=O)N[C@@H](CCC(=O)O)C(=O)N2C[C@H](O)C[C@H]2C(=O)N[C@@H](Cc2c[nH]c3ccccc23)C(=O)N[C@@H](CCN)C(=O)N[C@@H](Cc2cn(CC(=O)O)c3ccccc23)C(=O)N1C` [Example 5176] ({CH2CO}-Y[NMeA]DP[Dap]E[Hyp]W[Dab][Trp(1-CH2COOH)][NMeNle][NMeNle][Dap]CG-NH2; thioether N-14) yielded an IC50 of 1 to 9.9 nM.

For `CCCC[C@H]1C(=O)N(C)[C@@H](CCCC)C(=O)N[C@@H](CCC(=O)O)C(=O)N[C@H](C(=O)NCC(N)=O)CSCC(=O)N[C@@H](Cc2ccc(O)cc2)C(=O)N(C)[C@@H](C)C(=O)N[C@@H](CC(=O)O)C(=O)N2CCC[C@H]2C(=O)N[C@@H](CO)C(=O)N[C@@H](CCC(N)=O)C(=O)N2C[C@H](O)C[C@H]2C(=O)N[C@@H](Cc2c[nH]c3ccccc23)C(=O)N[C@@H](CCC(=O)O)C(=O)N[C@@H](Cc2c[nH]c3ccccc23)C(=O)N1C` [Example 5177] ({CH2CO}-Y[NMeA]DPSQ[Hyp]WEW[NMeNle][NMeNle]ECG-NH2; thioether N-14), the IC50 was 10 to 99.9 nM.

`CCCC[C@H]1C(=O)N(C)[C@@H](CCCC)C(=O)N[C@@H](CCCNC(=N)N)C(=O)N[C@H](C(=O)NCC(N)=O)CSCC(=O)N[C@@H](Cc2ccc(O)cc2)C(=O)N(C)[C@@H](C)C(=O)N[C@@H](CO)C(=O)N2CCC[C@H]2C(=O)N[C@@H](Cc2cnc[nH]2)C(=O)N[C@@H](CCC(N)=O)C(=O)N2C[C@H](O)C[C@H]2C(=O)N[C@@H](Cc2c[nH]c3ccccc23)C(=O)N[C@@H](CO)C(=O)N[C@@H](Cc2c[nH]c3ccccc23)C(=O)N1C` [Example 5178] ({CH2CO}-Y[NMeA]SPHQ[Hyp]WSW[NMeNle][NMeNle]RCG-NH2; thioether N-14) showed an IC50 of 1 to 9.9 nM.

`CCCC[C@H]1C(=O)N(C)[C@@H](CCCC)C(=O)N[C@@H](CCC(=O)O)C(=O)N[C@H](C(=O)NCC(N)=O)CSCC(=O)N[C@@H](Cc2ccc(O)cc2)C(=O)N(C)[C@@H](C)C(=O)N[C@@H](CC(=O)O)C(=O)N2CCC[C@H]2C(=O)N[C@@H](CO)C(=O)N[C@@H](CC(C)C)C(=O)N2C[C@H](O)C[C@H]2C(=O)N[C@@H](Cc2c[nH]c3ccccc23)C(=O)N[C@@H](CCN)C(=O)N[C@@H](Cc2c[nH]c3ccccc23)C(=O)N1C` [Example 5179] ({CH2CO}-Y[NMeA]DPSL[Hyp]W[Dab]W[NMeNle][NMeNle]ECG-NH2; thioether N-14) showed an IC50 of 1 to 9.9 nM.

In the case of `CCCC[C@H]1C(=O)N(C)[C@@H](CCCC)C(=O)N[C@@H](CC(C)C)C(=O)N[C@H](C(=O)NCC(N)=O)CSCC(=O)N[C@@H](Cc2ccc(O)cc2)C(=O)N(C)[C@@H](C)C(=O)N[C@@H](CC(=O)O)C(=O)N2CCC[C@H]2C(=O)N[C@@H](CN)C(=O)N[C@@H](CCC(=O)O)C(=O)N2C[C@H](O)C[C@H]2C(=O)N[C@@H](Cc2c[nH]c3ccccc23)C(=O)N[C@@H](CCN)C(=O)N[C@@H](Cc2cn(CC(=O)O)c3ccccc23)C(=O)N1C` [Example 5180] ({CH2CO}-Y[NMeA]DP[Dap]E[Hyp]W[Dab][Trp(1-CH2COOH)][NMeNle][NMeNle]LCG-NH2; thioether N-14), the IC50 is reported as 1 to 9.9 nM.

`CCCC[C@H]1C(=O)N(C)[C@@H](CCCC)C(=O)N[C@@H](CC(=O)O)C(=O)N[C@H](C(=O)NCC(N)=O)CSCC(=O)N[C@@H](Cc2ccc(O)cc2)C(=O)N(C)[C@@H](C)C(=O)N[C@@H](CC(N)=O)C(=O)N2CCC[C@H]2C(=O)N[C@@H](Cc2c[nH]cn2)C(=O)N[C@@H](CCC(=O)O)C(=O)N2C[C@H](O)C[C@H]2C(=O)N[C@@H](Cc2c[nH]c3ccccc23)C(=O)N[C@@H](CCN)C(=O)N[C@@H](Cc2cn(CC(=O)O)c3ccccc23)C(=O)N1C` [Example 5181] ({CH2CO}-Y[NMeA]NPHE[Hyp]W[Dab][Trp(1-CH2COOH)][NMeNle][NMeNle]DCG-NH2; thioether N-14) gave an IC50 of 10 to 99.9 nM.

Compound `CCCC[C@H]1C(=O)N(C)[C@@H](CCCC)C(=O)N[C@@H](CN)C(=O)N[C@H](C(=O)NCC(N)=O)CSCC(=O)N[C@@H](Cc2ccc(O)cc2)C(=O)N(C)[C@@H](C)C(=O)N[C@@H](CC(N)=O)C(=O)N2CCC[C@H]2C(=O)N[C@@H](Cc2c[nH]cn2)C(=O)N[C@@H](CC(C)C)C(=O)N2CCC[C@H]2C(=O)N[C@@H](Cc2c[nH]c3ccccc23)C(=O)N[C@@H](CO)C(=O)N[C@@H](Cc2c[nH]c3ccccc23)C(=O)N1C` [Example 5182] has an IC50 of 10 to 99.9 nM.

For `CCCC[C@H]1C(=O)N(C)[C@@H](CCCC)C(=O)N[C@@H](CC(C)C)C(=O)N[C@H](C(=O)NCC(N)=O)CSCC(=O)N[C@@H](Cc2ccc(O)cc2)C(=O)N(C)[C@@H](C)C(=O)N[C@@H](CC(N)=O)C(=O)N2CCC[C@H]2C(=O)NCC(=O)N[C@@H](CCC(N)=O)C(=O)N2C[C@H](O)C[C@H]2C(=O)N[C@@H](Cc2c[nH]c3ccccc23)C(=O)NCC(=O)N[C@@H](Cc2c[nH]c3ccccc23)C(=O)N1C` [Example 5183] ({CH2CO}-Y[NMeA]NPGQ[Hyp]WGW[NMeNle][NMeNle]LCG-NH2; thioether N-14), the IC50 was 10 to 99.9 nM.

Compound `CCCC[C@H]1C(=O)N(C)[C@@H](CCCC)C(=O)N[C@@H](CCC(=O)O)C(=O)N[C@H](C(=O)NCC(N)=O)CSCC(=O)N[C@@H](Cc2ccc(O)cc2)C(=O)N(C)[C@@H](C)C(=O)N[C@@H](CC(=O)O)C(=O)N2CCC[C@H]2C(=O)N[C@@H](CO)C(=O)N[C@@H](CC(C)C)C(=O)N2C[C@H](O)C[C@H]2C(=O)N[C@@H](Cc2c[nH]c3ccccc23)C(=O)N[C@@H](CO)C(=O)N[C@@H](CC2CNc3ccccc32)C(=O)N1C` (stereo partly drawn) [Example 5184] ({CH2CO}-Y[NMeA]DPSL[Hyp]WS[X8][NMeNle][NMeNle]ECG-NH2; thioether N-14) has an IC50 of 10 to 99.9 nM.

Compound `CCCC[C@H]1C(=O)N(C)[C@@H](CCCC)C(=O)N[C@@H](CCC(=O)O)C(=O)N[C@H](C(=O)NCC(N)=O)CSCC(=O)N[C@@H](Cc2ccc(O)cc2)C(=O)N(C)[C@@H](C)C(=O)N[C@@H](CC(N)=O)C(=O)N2CCC[C@H]2C(=O)N[C@@H](Cc2cnc[nH]2)C(=O)N[C@@H](CCC(N)=O)C(=O)N2C[C@H](O)C[C@H]2C(=O)N[C@@H](Cc2c[nH]c3ccccc23)C(=O)N[C@@H](CCC(=O)O)C(=O)N[C@@H](Cc2c[nH]c3ccccc23)C(=O)N1C` [Example 5186] ({CH2CO}-Y[NMeA]NPHQ[Hyp]WEW[NMeNle][NMeNle]ECG-NH2; thioether N-14) has an IC50 of 1 to 9.9 nM.

In the case of `CCCC[C@H]1C(=O)N(C)[C@@H](CCCC)C(=O)N[C@@H](CCC(=O)O)C(=O)N[C@H](C(=O)NCC(N)=O)CSCC(=O)N[C@@H](Cc2ccc(O)cc2)C(=O)N(C)[C@@H](C)C(=O)N[C@@H](CC(N)=O)C(=O)N2CCC[C@H]2C(=O)N[C@@H](Cc2c[nH]cn2)C(=O)N[C@@H](CCC(=O)O)C(=O)N2C[C@H](O)C[C@H]2C(=O)N[C@@H](Cc2c[nH]c3ccccc23)C(=O)N[C@@H](CCN)C(=O)N[C@@H](Cc2c[nH]c3ccccc23)C(=O)N1C` [Example 5190] ({CH2CO}-Y[NMeA]NPHE[Hyp]W[Dab]W[NMeNle][NMeNle]ECG-NH2; thioether N-14), the IC50 is reported as 1 to 9.9 nM.
